{"source": "patent US10213433B2", "about": "(AbbVie Inc., priority 2010, dated 2019)"}
{"target": "Bcl-2 protein (Homo sapiens (Human), UniProt P10415)", "sequence (P10415 whole entry)": "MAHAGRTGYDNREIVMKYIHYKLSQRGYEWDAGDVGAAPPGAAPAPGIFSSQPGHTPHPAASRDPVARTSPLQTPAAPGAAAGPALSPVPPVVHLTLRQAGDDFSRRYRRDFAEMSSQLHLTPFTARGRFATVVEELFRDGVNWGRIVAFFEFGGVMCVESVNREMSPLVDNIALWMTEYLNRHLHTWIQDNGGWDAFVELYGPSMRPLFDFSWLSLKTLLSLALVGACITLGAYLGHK", "assay": "Bcl-2 binding TR-FRET (Time-Resolved Fluorescence-Resonance-Energy-Transfer) assay", "settings": "inhibition constant for binding to Bcl-2 protein", "from_the_text": "The smaller the Ki value, the greater is the binding affinity.", "units": {"Ki": "nM"}}
{"smiles": "CN(C)CC(=O)N1CC[C@@H](Nc2ccc(S(=O)(=O)NC(=O)c3ccc(N4CCN(CC5=C(c6ccc(Cl)cc6)CC(C)(C)CC5)CC4)cc3Oc3cnc4[nH]ccc4c3)cc2[N+](=O)[O-])C1", "note": "[Compound 255, 4-(4-{[2-(4-chlorophenyl)-4,4-dimethylcyclohex-1-en-1-yl]methyl}piperazin-1-yl)-N-[(4-{[(3R)-1-(N,N-dimethylglycyl)pyrrolidin-3-yl]amino}-3-nitrophenyl)sulfonyl]-2-(1H-pyrrolo[2,3-b]pyridin-5-yloxy)benzamide]", "Ki": "< 0.01"}
{"smiles": "CC1(C)CCC(CN2CCN(c3ccc(C(=O)NS(=O)(=O)c4ccc(NC[C@H]5CCN(C6COC6)C5)c([N+](=O)[O-])c4)c(Oc4cnc5[nH]ccc5c4)c3)CC2)=C(c2ccc(Cl)cc2)C1", "note": "[Compound 195, 4-(4-{[2-(4-chlorophenyl)-4,4-dimethylcyclohex-1-en-1-yl]methyl}piperazin-1-yl)-N-{[3-nitro-4-({[(3R)-1-oxetan-3-ylpyrrolidin-3-yl]methyl}amino)phenyl]sulfonyl}-2-(1H-pyrrolo[2,3-b]pyridin-5-yloxy)benzamide]", "Ki": "< 0.01"}
{"smiles": "CC1(C)CCC(CN2CCN(c3ccc(C(=O)NS(=O)(=O)c4ccc(NC[C@@H]5CCN(C6COC6)C5)c([N+](=O)[O-])c4)c(Oc4cnc5[nH]ccc5c4)c3)CC2)=C(c2ccc(Cl)cc2)C1", "note": "[Compound 209, 4-(4-{[2-(4-chlorophenyl)-4,4-dimethylcyclohex-1-en-1-yl]methyl}piperazin-1-yl)-N-{[3-nitro-4-({[(3S)-1-oxetan-3-ylpyrrolidin-3-yl]methyl}amino)phenyl]sulfonyl}-2-(1H-pyrrolo[2,3-b]pyridin-5-yloxy)benzamide]", "Ki": "< 0.01"}
{"smiles": "CC1(C)CCC(CN2CCN(c3ccc(C(=O)NS(=O)(=O)c4ccc(NC5CCN(C6CCC6)CC5)c([N+](=O)[O-])c4)c(Oc4cnc5[nH]ccc5c4)c3)CC2)=C(c2ccc(Cl)cc2)C1", "note": "[Compound 140, 4-(4-{[2-(4-chlorophenyl)-4,4-dimethylcyclohex-1-en-1-yl]methyl}piperazin-1-yl)-N-({4-[(1-cyclobutylpiperidin-4-yl)amino]-3-nitrophenyl}sulfonyl)-2-(1H-pyrrolo[2,3-b]pyridin-5-yloxy)benzamide]", "Ki": "< 0.01"}
{"smiles": "CC1(C)CCC(CN2CCN(c3ccc(C(=O)NS(=O)(=O)c4ccc(NC5CN(C6COC6)C5)c([N+](=O)[O-])c4)c(Oc4cnc5[nH]ccc5c4)c3)CC2)=C(c2ccc(Cl)cc2)C1", "note": "[Compound 256, 4-(4-{[2-(4-chlorophenyl)-4,4-dimethylcyclohex-1-en-1-yl]methyl}piperazin-1-yl)-N-[(3-nitro-4-{[1-(oxetan-3-yl)azetidin-3-yl]amino}phenyl)sulfonyl]-2-(1H-pyrrolo[2,3-b]pyridin-5-yloxy)benzamide]", "Ki": "< 0.01"}
{"smiles": "CC1(C)CC(c2ccc(Cl)cc2)=C(CN2CCN(c3ccc(C(=O)NS(=O)(=O)c4cnc(OCC5CCOCC5)c(C#N)c4)c(Oc4cnc5[nH]ccc5c4)c3)CC2)CO1", "note": "[Compound 35, 4-(4-{[4-(4-chlorophenyl)-6,6-dimethyl-5,6-dihydro-2H-pyran-3-yl]methyl}piperazin-1-yl)-N-{[5-cyano-6-(tetrahydro-2H-pyran-4-ylmethoxy)pyridin-3-yl]sulfonyl}-2-(1H-pyrrolo[2,3-b]pyridin-5-yloxy)benzamide]", "Ki": "< 0.01"}
{"smiles": "CN(C)CC(=O)N1CCO[C@@H](CNc2ccc(S(=O)(=O)NC(=O)c3ccc(N4CCN(CC5=C(c6ccc(Cl)cc6)CC(C)(C)CC5)CC4)cc3Oc3cnc4[nH]ccc4c3)cc2[N+](=O)[O-])C1", "note": "[Compound 259, 4-(4-{[2-(4-chlorophenyl)-4,4-dimethylcyclohex-1-en-1-yl]methyl}piperazin-1-yl)-N-{[4-({[(2S)-4-(N,N-dimethylglycyl)morpholin-2-yl]methyl}amino)-3-nitrophenyl]sulfonyl}-2-(1H-pyrrolo[2,3-b]pyridin-5-yloxy)benzamide]", "Ki": "< 0.01"}
{"smiles": "CC1(C)CCC(CN2CCN(c3ccc(C(=O)NS(=O)(=O)c4cnc(OCC5CCOCC5)c(Cl)c4)c(Oc4cnc5[nH]ccc5c4)c3)CC2)=C(c2ccc(Cl)cc2)C1", "note": "[Compound 40, 4-(4-{[2-(4-chlorophenyl)-4,4-dimethylcyclohex-1-en-1-yl]methyl}piperazin-1-yl)-N-{[5-chloro-6-(tetrahydro-2H-pyran-4-ylmethoxy)pyridin-3-yl]sulfonyl}-2-(1H-pyrrolo[2,3-b]pyridin-5-yloxy)benzamide]", "Ki": "< 0.01"}
{"smiles": "CN1CCC(CNc2ccc(S(=O)(=O)NC(=O)c3ccc(N4CCN(CC5=C(c6ccc(Cl)cc6)CC(C)(C)CC5)CC4)cc3Oc3cnc4[nH]ccc4c3)cc2[N+](=O)[O-])CC1", "note": "[Compound 65, 4-(4-{[2-(4-chlorophenyl)-4,4-dimethylcyclohex-1-en-1-yl]methyl}piperazin-1-yl)-N-[(4-{[(1-methylpiperidin-4-yl)methyl]amino}-3-nitrophenyl)sulfonyl]-2-(1H-pyrrolo[2,3-b]pyridin-5-yloxy)benzamide]", "Ki": "< 0.01"}
{"smiles": "CC1(C)CCC(CN2CCN(c3ccc(C(=O)NS(=O)(=O)c4ccc(NC5CCS(=O)(=O)CC5)c([N+](=O)[O-])c4)c(Oc4cnc5[nH]ccc5c4)c3)CC2)=C(c2ccc(Cl)cc2)C1", "note": "[Compound 81, 4-(4-{[2-(4-chlorophenyl)-4,4-dimethylcyclohex-1-en-1-yl]methyl}piperazin-1-yl)-N-({4-[(1,1-dioxidotetrahydro-2H-thiopyran-4-yl)amino]-3-nitrophenyl}sulfonyl)-2-(1H-pyrrolo[2,3-b]pyridin-5-yloxy)benzamide]", "Ki": "< 0.01"}
{"smiles": "CC1(C)CCC(CN2CCN(c3ccc(C(=O)NS(=O)(=O)c4ccc(NCC5CN(C6COC6)CCO5)c([N+](=O)[O-])c4)c(Oc4cnc5[nH]ccc5c4)c3)CC2)=C(c2ccc(Cl)cc2)C1", "note": "(stereo not shown) [Compound 217, 4-(4-{[2-(4-chlorophenyl)-4,4-dimethylcyclohex-1-en-1-yl]methyl}piperazin-1-yl)-N-{[3-nitro-4-({[4-(oxetan-3-yl)morpholin-2-yl]methyl}amino)phenyl]sulfonyl}-2-(1H-pyrrolo[2,3-b]pyridin-5-yloxy)benzamide]", "Ki": "< 0.01"}
{"smiles": "CN(C)CC(=O)N1CCC(COc2ccc(S(=O)(=O)NC(=O)c3ccc(N4CCN(CC5=C(c6ccc(Cl)cc6)CC(C)(C)CC5)CC4)cc3Oc3cnc4[nH]ccc4c3)cc2Cl)CC1", "note": "[Compound 295, N-[(3-chloro-4-{[1-(N,N-dimethylglycyl)piperidin-4-yl]methoxy}phenyl)sulfonyl]-4-(4-{[2-(4-chlorophenyl)-4,4-dimethylcyclohex-1-en-1-yl]methyl}piperazin-1-yl)-2-(1H-pyrrolo[2,3-b]pyridin-5-yloxy)benzamide]", "Ki": "< 0.01"}
{"smiles": "COC1(C)CCC(c2ccc(Cl)cc2)=C(CN2CCN(c3ccc(C(=O)NS(=O)(=O)c4ccc(NCC5CCOCC5)c([N+](=O)[O-])c4)c(Oc4cnc5[nH]ccc5c4)c3)CC2)C1", "note": "(stereo not shown) [Compound 378, 4-(4-{[2-(4-chlorophenyl)-5-methoxy-5-methylcyclohex-1-en-1-yl]methyl}piperazin-1-yl)-N-({3-nitro-4-[(tetrahydro-2H-pyran-4-ylmethyl)amino]phenyl}sulfonyl)-2-(1H-pyrrolo[2,3-b]pyridin-5-yloxy)benzamide]", "Ki": "< 0.001"}
{"smiles": "CC1(C)CCC(CN2CCN(c3ccc(C(=O)NS(=O)(=O)c4ccc(NC5CCN(C(C)(C)C)CC5)c(S(=O)(=O)C(F)(F)F)c4)c(Oc4cnc5[nH]ccc5c4)c3)CC2)=C(c2ccc(Cl)cc2)C1", "note": "[Compound 240, N-({4-[(1-tert-butylpiperidin-4-yl)amino]-3-[(trifluoromethyl)sulfonyl]phenyl}sulfonyl)-4-(4-{[2-(4-chlorophenyl)-4,4-dimethylcyclohex-1-en-1-yl]methyl}piperazin-1-yl)-2-(1H-pyrrolo[2,3-b]pyridin-5-yloxy)benzamide]", "Ki": "< 0.01"}
{"smiles": "CC1(C)CCC(CN2CCN(c3ccc(C(=O)NS(=O)(=O)c4ccc(NC5CCN(S(C)(=O)=O)CC5)c([N+](=O)[O-])c4)c(Oc4cnc5[nH]ccc5c4)c3)CC2)=C(c2ccc(Cl)cc2)C1", "note": "[Compound 80, 4-(4-{[2-(4-chlorophenyl)-4,4-dimethylcyclohex-1-en-1-yl]methyl}piperazin-1-yl)-N-[(4-{[1-(methylsulfonyl)piperidin-4-yl]amino}-3-nitrophenyl)sulfonyl]-2-(1H-pyrrolo[2,3-b]pyridin-5-yloxy)benzamide]", "Ki": "< 0.01"}
{"smiles": "CC1(C)CCC(CN2CCN(c3ccc(C(=O)NS(=O)(=O)c4ccc(NCC5(F)CCOCC5)c([N+](=O)[O-])c4)c(Oc4cnc5[nH]ccc5c4)c3)CC2)=C(c2ccc(Cl)cc2)C1", "note": "[Compound 138, 4-(4-{[2-(4-chlorophenyl)-4,4-dimethylcyclohex-1-en-1-yl]methyl}piperazin-1-yl)-N-[(4-{[(4-fluorotetrahydro-2H-pyran-4-yl)methyl]amino}-3-nitrophenyl)sulfonyl]-2-(1H-pyrrolo[2,3-b]pyridin-5-yloxy)benzamide]", "Ki": "< 0.01"}
{"smiles": "CC1(C)CCC(CN2CCN(c3ccc(C(=O)NS(=O)(=O)c4ccc(NCC5CCOC5)c([N+](=O)[O-])c4)c(Oc4cnc5[nH]ccc5c4)c3)CC2)=C(c2ccc(Cl)cc2)C1", "note": "(stereo not shown) [Compound 114, 4-(4-{[2-(4-chlorophenyl)-4,4-dimethylcyclohex-1-en-1-yl]methyl}piperazin-1-yl)-N-({3-nitro-4-[(tetrahydrofuran-3-ylmethyl)amino]phenyl}sulfonyl)-2-(1H-pyrrolo[2,3-b]pyridin-5-yloxy)benzamide]", "Ki": "< 0.01"}
{"smiles": "CC1(C)CCC(CN2CCN(c3ccc(C(=O)NS(=O)(=O)c4ccc(N[C@H]5CCN(C6CCOC(C)(C)C6)C5)c([N+](=O)[O-])c4)c(Oc4cnc5[nH]ccc5c4)c3)CC2)=C(c2ccc(Cl)cc2)C1", "note": "(stereo partly drawn) [Compound 133, 4-(4-{[2-(4-chlorophenyl)-4,4-dimethylcyclohex-1-en-1-yl]methyl}piperazin-1-yl)-N-[(4-{[(3S)-1-(2,2-dimethyltetrahydro-2H-pyran-4-yl)pyrrolidin-3-yl]amino}-3-nitrophenyl)sulfonyl]-2-(1H-pyrrolo[2,3-b]pyridin-5-yloxy)benzamide]", "Ki": "< 0.01"}
{"smiles": "CC1(C)CCC(CN2CCN(c3ccc(C(=O)NS(=O)(=O)c4ccc(OCC5CCCC(=O)C5)c([N+](=O)[O-])c4)c(Oc4cnc5[nH]ccc5c4)c3)CC2)=C(c2ccc(Cl)cc2)C1", "note": "(stereo not shown) [Compound 205, 4-(4-{[2-(4-chlorophenyl)-4,4-dimethylcyclohex-1-en-1-yl]methyl}piperazin-1-yl)-N-({3-nitro-4-[(3-oxocyclohexyl)methoxy]phenyl}sulfonyl)-2-(1H-pyrrolo[2,3-b]pyridin-5-yloxy)benzamide]", "Ki": "< 0.01"}
